Measurements taken from ChEMBL document CHEMBL5052819, “Peptide targeting gip and glp-2 receptors for treating bone disorders” (2020).
Activity calls are given as the source filed them. No cut-off for these calls is given here.

Assays:
[1] = test system: MC3T3-E1; experiment: Cytotoxicity against mouse MC3T3-E1 cells at 1 uM measured after 24 hrs by trypan blue assay; format: toxicity, cell-based; conditions: mc3t3-e1, 24 h
[2] = test system: RAW264.7; experiment: Inhibition of RANKL-induced osteoclastogenesis in mouse RAW264.7 cells measured after 110 hrs by TRAcP staining based assay; format: functional, cell-based; conditions: RAW264.7, 110 h
[3] = Toxicity in ovariectomized BALB/c mouse assessed as effect on body mass at 25 nmol/kg/day, sc; conditions: in vivo
[4] = test system: Mus musculus; experiment: Anti-osteoporosis activity in ovariectomized BALB/c mouse at 25 nmol/kg/day, sc assessed as increase in ultimate displacement of cortical bone; format: functional
[5] = test system: Mus musculus; experiment: Anti-osteoporosis activity in ovariectomized BALB/c mouse at 25 nmol/kg/day, sc assessed as increase in post-yield displacement of cortical bone; format: functional
[6] = test system: Mus musculus; experiment: Anti-osteoporosis activity in ovariectomized BALB/c mouse at 25 nmol/kg/day, sc assessed as increase in work-to-fracture of cortical bone; format: functional
[7] = test system: Mus musculus; experiment: Anti-osteoporosis activity in ovariectomized BALB/c mouse at 25 nmol/kg/day, sc assessed as effect on cortical bone microarchitecture; format: functional, organism-based
[8] = test system: Mus musculus; experiment: Anti-osteoporosis activity in ovariectomized BALB/c mouse at 25 nmol/kg/day, sc assessed as reduction in trabecular bone stiffness; format: functional, organism-based
[9] = test system: Mus musculus; experiment: Anti-osteoporosis activity in ovariectomized BALB/c mouse at 25 nmol/kg, sc assessed as increase in collagen maturity; format: functional
[10] = test system: Mus musculus; experiment: Anti-osteoporosis activity in ovariectomized BALB/c mouse at 25 nmol/kg, sc assessed as increase in collagen maturity heterogeneity; format: functional
[11] = test system: Mus musculus; experiment: Anti-osteoporosis activity in ovariectomized BALB/c mouse at 25 nmol/kg, sc assessed as increase in acid phosphate content heterogeneity; format: functional
[12] = test system: Mus musculus; experiment: Anti-osteoporosis activity in ovariectomized BALB/c mouse at 25 nmol/kg, sc assessed as decrease in mean phosphate/amide ratio; format: functional; design: scale not given: the % may be the effect or the level left
[13] = Toxicity in ovariectomized BALB/c mouse at 25 nmol/kg, sc assessed as effect on morphological changes in liver; format: organism-based; conditions: in vivo
[14] = Toxicity in ovariectomized BALB/c mouse at 25 nmol/kg, sc assessed as effect on morphological changes in pancreas; format: organism-based; conditions: in vivo
[15] = test system: HEK293; experiment: Activation of GIP/GLP2 receptor transfected in human HEK293 cells assessed as increase in intracellular cAMP level at 1 nM; format: cell-based; conditions: filed as activator
[16] = Toxicity in ovariectomized BALB/c mouse assessed as effect on body mass at 25 to 100 nmol/kg/day, sc

CC[C@H](C)[C@H](NC(=O)[C@H](CO)NC(=O)[C@H](CCSC)NC(=O)[C@H](CC(=O)O)NC(=O)[C@H](CO)NC(=O)CNC(=O)[C@H](Cc1ccccc1)NC(=O)[C@H](CO)NC(=O)CNC(=O)[C@H](CCC(=O)O)NC(=O)CNC(=O)[C@@H](N)Cc1cnc[nH]1)C(=O)N[C@@H](C)C(=O)N[C@@H](CC(C)C)C(=O)N[C@@H](CC(=O)O)C(=O)N[C@@H](CCCCN)C(=O)N[C@@H](CC(C)C)C(=O)N[C@@H](C)C(=O)N[C@@H](C)C(=O)N[C@@H](CCCNC(=N)N)C(=O)N[C@@H](CC(=O)O)C(=O)N[C@@H](Cc1ccccc1)C(=O)N[C@H](C(=O)N[C@@H](CC(N)=O)C(=O)N[C@@H](Cc1c[nH]c2ccccc12)C(=O)N[C@@H](CC(C)C)C(=O)N[C@@H](CC(C)C)C(=O)N[C@@H](CCC(N)=O)C(=O)N[C@H](C(=O)N[C@@H](CCCCN)C(=O)N[C@H](C(=O)N[C@H](C(=O)N[C@@H](CC(=O)O)C(N)=O)[C@@H](C)O)[C@@H](C)CC)[C@@H](C)O)C(C)C
Activity [1]: Non-Toxic | IC50 [2]: 18.2 pM | Activity [3]: Non-Toxic | Activity [4]: 34% | Activity [5]: 70% | Activity [6]: 37% | Activity [7]: inactive | Activity [8]: Active | Activity [9]: 10% | Activity [10]: 28% | Activity [11]: 21% | Activity [12]: 6% | Activity [13]: Non-Toxic | Activity [14]: Non-Toxic | Activity [15]: Active

CC[C@H](C)[C@H](NC(=O)[C@H](CO)NC(=O)[C@H](Cc1ccc(O)cc1)NC(=O)[C@H](CC(=O)O)NC(=O)[C@H](CO)NC(=O)[C@@H](NC(=O)[C@H](Cc1ccccc1)NC(=O)[C@@H](NC(=O)CNC(=O)[C@H](CCC(=O)O)NC(=O)[C@@H](C)NC(=O)[C@@H](N)Cc1ccc(O)cc1)[C@@H](C)O)[C@@H](C)CC)C(=O)N[C@@H](C)C(=O)N[C@@H](CCSC)C(=O)N[C@@H](CC(=O)O)C(=O)N[C@@H](CCCCN)C(=O)N[C@H](C(=O)N[C@@H](Cc1cnc[nH]1)C(=O)N[C@@H](CCC(N)=O)C(=O)N[C@@H](CCC(N)=O)C(=O)N[C@@H](CC(=O)O)C(=O)N[C@@H](Cc1ccccc1)C(=O)N[C@H](C(=O)N[C@@H](CC(N)=O)C(=O)N[C@@H](Cc1c[nH]c2ccccc12)C(=O)N[C@@H](CC(C)C)C(=O)N[C@@H](CC(C)C)C(=O)N[C@@H](C)C(=O)N[C@@H](CCC(N)=O)C(=O)N[C@@H](CCCCN)C(N)=O)C(C)C)[C@@H](C)CC
IC50 [2]: 40.1 pM | Activity [15]: Active

CC[C@H](C)[C@H](NC(=O)[C@H](CO)NC(=O)[C@H](Cc1ccccc1)NC(=O)[C@H](CC(=O)O)NC(=O)[C@H](CO)NC(=O)[C@@H](NC(=O)[C@H](Cc1ccccc1)NC(=O)[C@H](CO)NC(=O)CNC(=O)[C@H](CCC(=O)O)NC(=O)CNC(=O)[C@@H](N)Cc1cnc[nH]1)[C@@H](C)O)C(=O)N[C@@H](C)C(=O)N[C@@H](CC(C)C)C(=O)N[C@@H](CC(=O)O)C(=O)N[C@@H](CCCCN)C(=O)N[C@@H](CC(C)C)C(=O)N[C@@H](C)C(=O)N[C@@H](C)C(=O)N[C@@H](CCCNC(=N)N)C(=O)N[C@@H](CC(=O)O)C(=O)N[C@@H](Cc1ccccc1)C(=O)N[C@H](C(=O)N[C@@H](CC(N)=O)C(=O)N[C@@H](Cc1c[nH]c2ccccc12)C(=O)N[C@@H](CC(C)C)C(=O)N[C@@H](CC(C)C)C(=O)N[C@@H](CCC(N)=O)C(=O)N[C@H](C(=O)N[C@@H](CCCCN)C(N)=O)[C@@H](C)O)C(C)C
IC50 [2]: 16.8 pM

CC[C@H](C)[C@H](NC(=O)[C@H](CO)NC(=O)[C@H](CCSC)NC(=O)[C@H](CCC(=O)O)NC(=O)[C@H](CO)NC(=O)[C@@H](NC(=O)[C@H](Cc1ccccc1)NC(=O)[C@H](CO)NC(=O)CNC(=O)[C@H](CCC(=O)O)NC(=O)CNC(=O)[C@@H](N)Cc1cnc[nH]1)C(C)C)C(=O)N[C@H](C(=O)N[C@@H](CC(C)C)C(=O)N[C@@H](CC(=O)O)C(=O)N[C@@H](CCCCN)C(=O)N[C@@H](CC(C)C)C(=O)N[C@@H](C)C(=O)N[C@@H](C)C(=O)N[C@@H](CCCNC(=N)N)C(=O)N[C@@H](CC(=O)O)C(=O)N[C@@H](Cc1ccccc1)C(=O)N[C@H](C(=O)N[C@@H](CC(N)=O)C(=O)N[C@@H](Cc1c[nH]c2ccccc12)C(=O)N[C@@H](CC(C)C)C(=O)N[C@@H](CC(C)C)C(=O)N[C@@H](CCC(N)=O)C(=O)N[C@H](C(=O)N[C@@H](CCCCN)C(N)=O)[C@@H](C)O)C(C)C)C(C)C
IC50 [2]: 4630 pM

CC[C@H](C)[C@H](NC(=O)[C@H](CO)NC(=O)[C@H](Cc1ccccc1)NC(=O)[C@H](CC(=O)O)NC(=O)[C@H](CO)NC(=O)[C@@H](NC(=O)[C@H](Cc1ccccc1)NC(=O)[C@H](CO)NC(=O)CNC(=O)[C@H](CCC(=O)O)NC(=O)CNC(=O)[C@@H](N)Cc1cnc[nH]1)C(C)C)C(=O)N[C@@H](C)C(=O)N[C@@H](CC(C)C)C(=O)N[C@@H](CC(=O)O)C(=O)N[C@@H](CCCCN)C(=O)N[C@@H](CC(C)C)C(=O)N[C@@H](C)C(=O)N[C@@H](C)C(=O)N[C@@H](CCCNC(=N)N)C(=O)N[C@@H](CC(=O)O)C(=O)N[C@@H](Cc1ccccc1)C(=O)N[C@H](C(=O)N[C@@H](CC(N)=O)C(=O)N[C@@H](Cc1c[nH]c2ccccc12)C(=O)N[C@@H](CC(C)C)C(=O)N[C@@H](CC(C)C)C(=O)N[C@@H](CCC(N)=O)C(=O)N[C@H](C(=O)N[C@@H](CCCCN)C(N)=O)[C@@H](C)O)C(C)C
IC50 [2]: 180 pM

CC[C@H](C)[C@H](NC(=O)[C@H](CO)NC(=O)[C@H](CCSC)NC(=O)[C@H](CC(=O)O)NC(=O)[C@H](CO)NC(=O)[C@@H](NC(=O)[C@H](Cc1ccccc1)NC(=O)[C@H](CO)NC(=O)CNC(=O)[C@H](CCC(=O)O)NC(=O)CNC(=O)[C@@H](N)Cc1cnc[nH]1)C(C)C)C(=O)N[C@H](C(=O)N[C@@H](CC(C)C)C(=O)N[C@@H](CC(=O)O)C(=O)N[C@@H](CCCCN)C(=O)N[C@@H](CC(C)C)C(=O)N[C@@H](C)C(=O)N[C@@H](C)C(=O)N[C@@H](CCCNC(=N)N)C(=O)N[C@@H](CC(=O)O)C(=O)N[C@@H](Cc1ccccc1)C(=O)N[C@H](C(=O)N[C@@H](CC(N)=O)C(=O)N[C@@H](Cc1c[nH]c2ccccc12)C(=O)N[C@@H](CC(C)C)C(=O)N[C@@H](CC(C)C)C(=O)N[C@@H](CCC(N)=O)C(=O)N[C@H](C(=O)N[C@@H](CCCCN)C(N)=O)[C@@H](C)O)C(C)C)C(C)C
IC50 [16]: Non-Toxic

CC(C)C[C@H](NC(=O)[C@H](CCCCN)NC(=O)[C@H](CC(=O)O)NC(=O)[C@H](CC(C)C)NC(=O)[C@@H](NC(=O)[C@@H](NC(=O)[C@H](CO)NC(=O)[C@H](CC(C)C)NC(=O)[C@H](CC(=O)O)NC(=O)[C@H](CO)NC(=O)[C@@H](NC(=O)[C@H](Cc1ccccc1)NC(=O)[C@H](CO)NC(=O)CNC(=O)[C@H](CCC(=O)O)NC(=O)CNC(=O)[C@@H](N)Cc1cnc[nH]1)C(C)C)C(C)C)C(C)C)C(=O)N[C@@H](C)C(=O)N[C@@H](C)C(=O)N[C@@H](CCCNC(=N)N)C(=O)N[C@@H](CC(=O)O)C(=O)N[C@@H](Cc1ccccc1)C(=O)N[C@H](C(=O)N[C@@H](CC(N)=O)C(=O)N[C@@H](Cc1c[nH]c2ccccc12)C(=O)N[C@@H](CC(C)C)C(=O)N[C@@H](CC(C)C)C(=O)N[C@@H](CCC(N)=O)C(=O)N[C@H](C(=O)N[C@@H](CCCCN)C(N)=O)[C@@H](C)O)C(C)C
IC50 [2]: 10.7 pM

CSCC[C@H](NC(=O)[C@H](CC(=O)O)NC(=O)[C@H](CO)NC(=O)[C@@H](NC(=O)[C@H](Cc1ccccc1)NC(=O)[C@H](CO)NC(=O)CNC(=O)[C@H](CCC(=O)O)NC(=O)CNC(=O)[C@@H](N)Cc1cnc[nH]1)C(C)C)C(=O)N[C@@H](CO)C(=O)N[C@H](C(=O)N[C@H](C(=O)N[C@@H](CC(C)C)C(=O)N[C@@H](CC(=O)O)C(=O)N[C@@H](CCCCN)C(=O)N[C@@H](CC(C)C)C(=O)N[C@@H](C)C(=O)N[C@@H](C)C(=O)N[C@@H](CCCNC(=N)N)C(=O)N[C@@H](CC(=O)O)C(=O)N[C@@H](Cc1ccccc1)C(=O)N[C@H](C(=O)N[C@@H](CC(N)=O)C(=O)N[C@@H](Cc1c[nH]c2ccccc12)C(=O)N[C@@H](CC(C)C)C(=O)N[C@@H](CC(C)C)C(=O)N[C@@H](CCC(N)=O)C(=O)N[C@H](C(=O)N[C@@H](CCCCN)C(N)=O)[C@@H](C)O)C(C)C)C(C)C)C(C)C
IC50 [2]: 11.6 pM

CC(C)C[C@H](NC(=O)[C@H](CCCCN)NC(=O)[C@H](CC(=O)O)NC(=O)[C@H](CC(C)C)NC(=O)[C@@H](NC(=O)[C@@H](NC(=O)[C@H](CO)NC(=O)[C@H](Cc1ccccc1)NC(=O)[C@H](CC(=O)O)NC(=O)[C@H](CO)NC(=O)[C@@H](NC(=O)[C@H](Cc1ccccc1)NC(=O)[C@H](CO)NC(=O)CNC(=O)[C@H](CCC(=O)O)NC(=O)CNC(=O)[C@@H](N)Cc1cnc[nH]1)C(C)C)C(C)C)C(C)C)C(=O)N[C@@H](C)C(=O)N[C@@H](C)C(=O)N[C@@H](CCCNC(=N)N)C(=O)N[C@@H](CC(=O)O)C(=O)N[C@@H](Cc1ccccc1)C(=O)N[C@H](C(=O)N[C@@H](CC(N)=O)C(=O)N[C@@H](Cc1c[nH]c2ccccc12)C(=O)N[C@@H](CC(C)C)C(=O)N[C@@H](CC(C)C)C(=O)N[C@@H](CCC(N)=O)C(=O)N[C@H](C(=O)N[C@@H](CCCCN)C(N)=O)[C@@H](C)O)C(C)C
IC50 [2]: 9.6 pM
